In patent US20150004637A1, “SYSTEMS AND METHODS FOR IMAGING AT HIGH SPATIAL AND/OR TEMPORAL PRECISION” (President and Fellows of Harvard College, priority 2011, published 2015):
Like-named read-outs stand apart in the source and are kept apart here.

B1: GPR: Green-absorbing proteorhodopsin, light-driven proton pump found in marine bacteria (protein)
chain: TMGKLLLILGSVIALPTFAAGGGDLDASDYTGVSFWLVTAALLASTVFFFVERDRVSAKWKTSLTVSGLVTGIAFWHYMYMRGVWIETGDSPTVFRYIDWLLTVPLLICEFYLILAAATNVAAGLFKKLLVGSLVMLVFGYMGEAGIMNAWPAFIIGCLAWVYMIYELYAGEGKSACNTASPSVQSAYNTMMAIIVFGWAIYPVGYFTGYLMGDGGSALNLNLIYNLADFVNKILFGLIIWNVAVKESSNA
modifications: /note=“Description of Unknown Green-absorbing proteorhodopsin polypeptide from an uncultured marine bacterium”

Legend:
[1] = system: membrane potential; conditions: literature values, cited from earlier work; for Approx ΔF/F per 100 mV: ΔR/R where comment says ratiometric
[2] = Schiff base pKa and fluorescence of GPR / PROPS; format: physicochemical

Molecule | Approx response time [1] | Approx ΔF/F per 100 mV [1] | pKa of the Schiff Base [2] | pKa of the Schiff Base ([2]; listed as green proteorhodopsin)
CCCCN(CCCC)c1ccc2cc(/C=C/c3cc[n+](CCCS(=O)(=O)[O-])cc3)ccc2c1 [di-4-ANEPPS] | <1 ms | 8% |  | 
CCCCCN(CCCCC)c1ccc(/C=C/C=C/c2cc[n+](CCCCS(=O)(=O)[O-])cc2)cc1 [RH421] | <1 ms | 21% |  | 
Flash | 2.8 to 85 ms | 5.1% |  | 
CCCCN(CCCC)c1ccc(/C=C/C=C/C=C/c2cc[n+](CCCCS(=O)(=O)[O-])cc2)cc1 [RH237] | <1 ms | 11% |  | 
CCCCCCCCN(CCCCCCCC)c1ccc2cc(/C=C/c3cc[n+](CCCS(=O)(=O)[O-])cc3)ccc2c1 [di-8-ANEPPS] | <1 ms | 10% |  | 
B1 |  |  | ~12 | > 12
